From patent publication US10570129B2 (Zoetis Services LLC, priority 2015, dated 2020)

Legend:
D. immitis microfilariae = test: Dirofilaria immitis, microfilariae (DiMF) in vitro motility assay; assay type: cell-based; conditions: Dirofilaria immitis, 72 h, read-out: DiMF minimally effective dose (MEC)
Haemonchus contortus L3 = test: microbe, parasite or virus in culture; assay type: cell-based; conditions: Haemonchus contortus, 96 h, read-out: HcL3 Minimal Effective Concentration (MEC)

Structure (SMILES)	minimal effective concentration (D. immitis microfilariae) [µM]	minimal effective concentration (Haemonchus contortus L3) [µM]
O=C(NCc1ccnc(F)c1)n1c2c(c3cc(Cl)ccc31)CN(C/C=C/c1ccc(Cl)cc1F)CC2 [Example 255, (E)-8-chloro-2-(3-(4-chloro-2-fluorophenyl)allyl)-N-((2-fluoropyridin-4-yl)methyl)-1,2,3,4-tetrahydro-5H-pyrido[4,3-b]indole-5-carboxamide]	18.2	0.3
O=C(NCc1ccnc(F)c1)n1c2c(c3cc(Cl)ccc31)CN(C/C=C/c1ccc(F)cc1Cl)CC2 [Example 256, (E)-8-chloro-2-(3-(2-chloro-4-fluorophenyl)allyl)-N-((2-fluoropyridin-4-yl)methyl)-1,2,3,4-tetrahydro-5H-pyrido[4,3-b]indole-5-carboxamide]	10	0.2
O=C(NCc1ccnc(F)c1)n1c2c(c3cc(Cl)ccc31)CN(C/C=C/c1ccc(F)cc1F)CC2 [Example 257, (E)-8-chloro-2-(3-(2,4-difluorophenyl)allyl)-N-((2-fluoropyridin-4-yl)methyl)-1,2,3,4-tetrahydro-5H-pyrido[4,3-b]indole-5-carboxamide]	5.7	0.2
O=C(NCc1ccnc(F)c1)n1c2c(c3cc(Cl)ccc31)CN(C/C=C/c1ccc(F)c(Cl)c1)CC2 [Example 258, (E)-8-chloro-2-(3-(3-chloro-4-fluorophenyl)allyl)-N-((2-fluoropyridin-4-yl)methyl)-1,2,3,4-tetrahydro-5H-pyrido[4,3-b]indole-5-carboxamide]	100	10
O=C(NCc1ccnc(F)c1)n1c2c(c3cc(Cl)ccc31)CN(C/C=C/c1ccc(F)c(F)c1)CC2 [Example 259, (E)-8-chloro-2-(3-(3,4-difluorophenyl)allyl)-N-((2-fluoropyridin-4-yl)methyl)-1,2,3,4-tetrahydro-5H-pyrido[4,3-b]indole-5-carboxamide]	3.3	0.1
O=C(NCc1ccnc(F)c1)n1c2c(c3cc(Cl)ccc31)CN(C/C=C/c1ccc(Cl)cc1)CC2 [Example 260, (E)-8-chloro-2-(3-(4-chlorophenyl)allyl)-N-((2-fluoropyridin-4-yl)methyl)-1,2,3,4-tetrahydro-5H-pyrido[4,3-b]indole-5-carboxamide]	10	0.4
O=C(NCc1ccnc(F)c1)n1c2c(c3cc(Cl)ccc31)CN(C/C=C/c1ccc(Cl)c(Cl)c1)CC2 [Example 261, (E)-8-chloro-2-(3-(3,4-dichlorophenyl)allyl)-N-((2-fluoropyridin-4-yl)methyl)-1,2,3,4-tetrahydro-5H-pyrido[4,3-b]indole-5-carboxamide]	10	1
O=C(NCc1ccnc(Cl)c1)n1c2c(c3cccc(Cl)c31)CN(C/C=C/c1ccc(C(F)(F)F)cn1)CC2 [Example 266, (E)-6-chloro-N-((2-chloropyridin-4-yl)methyl)-2-(3-(5-(trifluoromethyl)-pyridin-2-yl)allyl)-1,2,3,4-tetrahydro-5H-pyrido[4,3-b]indole-5-carboxamide]	18.2	> 100
O=C(NCc1ccnc(Cl)c1)n1c2c(c3cccc(Cl)c31)CN(C/C=C/c1ccc(Cl)cc1)CC2 [Example 267, (E)-6-chloro-2-(3-(4-chlorophenyl)allyl)-N-((2-chloropyridin-4-yl)methyl)-1,2,3,4-tetrahydro-5H-pyrido[4,3-b]indole-5-carboxamide]	10	> 100
O=C(NCc1ccnc(Cl)c1)n1c2c(c3cccc(Cl)c31)CN(C/C=C/c1ccc(Cl)c(Cl)c1)CC2 [Example 268, (E)-6-chloro-N-((2-chloropyridin-4-yl)methyl)-2-(3-(3,4-dichlorophenyl)allyl)-1,2,3,4-tetrahydro-5H-pyrido[4,3-b]indole-5-carboxamide]	10	> 100
